Laboratory results published in patent US7807676B2, “Diketo-Piperazine and Piperidine derivatives as antiviral agents” (priority 2006, dated 2010).

system: HIV-1 single-round infectious reporter virus; assay: Single-round infectious HIV-1 luciferase reporter virus infection of HeLa CD4 cells (antiviral EC50); format: cell-based; conditions: Human immunodeficiency virus 1, HeLa, read-out: EC50 Group from Table 3
Method in brief: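 Env-pseudotyped single-round HIV-1 reporter virus (env-deleted provirus with luciferase in place of nef, made in 293 cells) infected HeLa CD4 cells at MOI ~0.01 with compound present, up to 10 μM final. Luciferase luminescence read after 72 h at 37 °C; EC50 from four-parameter logistic fit of % inhibition over 10 concentrations.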

SMILES | EC50 [nM]
O=C(C(=O)N1CCN(c2c[nH]nc2-c2ccccc2)CC1)c1c[nH]c2c(-n3ccnn3)ncc(F)c12 [G-5a] | < 500
COc1cnc(-n2cnc(C)n2)c2[nH]cc(C(=O)C(=O)N3CCN(c4c[nH]nc4-c4ccccc4)CC3)c12 [G-5b] | < 500
COc1cnc(-n2cnc(C)n2)c2[nH]cc(C(=O)C(=O)N3CCN(c4cn(CCN(C)C)nc4-c4ccccc4)CC3)c12 [G-6a] | < 500
CN(C)CCn1cc(N2CCN(C(=O)C(=O)c3c[nH]c4c(-n5ccnn5)ncc(F)c34)CC2)c(-c2ccccc2)n1 [G-6b] | < 500
COc1cnc(-n2cnc(C)n2)c2[nH]cc(C(=O)C(=O)N3CCN(c4cn(Cc5ccccn5)nc4-c4ccccc4)CC3)c12 [G-7a] | < 500
O=C(C(=O)N1CCN(c2cn(Cc3ccccn3)nc2-c2ccccc2)CC1)c1c[nH]c2c(-n3ccnn3)ncc(F)c12 [G-7b] | < 500
O=C(C(=O)N1CCN(c2[nH]nnc2-c2ccccc2)CC1)c1c[nH]c2c(-n3ccnn3)ncc(F)c12 [G-8a] | < 500
COc1cnc(-n2cnc(C)n2)c2[nH]cc(C(=O)C(=O)N3CCN(c4[nH]nnc4-c4ccccc4)CC3)c12 [G-8b] | < 500
COc1cnc(-n2cnc(C)n2)c2[nH]cc(C(=O)C(=O)N3CCN(c4ccnn4-c4ccccc4)CC3)c12 [G-9a] | < 500
O=C(C(=O)N1CCN(c2ccnn2-c2ccccc2)CC1)c1c[nH]c2c(-n3ccnn3)ncc(F)c12 [G-9b] | < 500
O=C(C(=O)N1CCC(N2CCN=C2c2ccccc2)CC1)c1c[nH]c2c(-n3ccnn3)ncc(F)c12 [G-10a] | > 500
COc1cnc(-n2cnc(C)n2)c2[nH]cc(C(=O)C(=O)N3CCC(N4CCN=C4c4ccccc4)CC3)c12 [G-10b] | > 500
O=C(C(=O)N1CCC(n2ccnc2-c2ccccc2)CC1)c1c[nH]c2c(-n3ccnn3)ncc(F)c12 [G-11a] | < 500
COc1cnc(-n2cnc(C)n2)c2[nH]cc(C(=O)C(=O)N3CCC(n4ccnc4-c4ccccc4)CC3)c12 [G-11b] | > 500
O=C(C(=O)N1CCN(C2=NCCN2c2ccccc2)CC1)c1c[nH]c2c(-n3ccnn3)ncc(F)c12 [G-12a] | < 500
COc1cnc(-n2cnc(C)n2)c2[nH]cc(C(=O)C(=O)N3CCN(C4=NCCN4c4ccccc4)CC3)c12 [G-12b] | < 500
Cn1ncc(N2CCN(C(=O)C(=O)c3c[nH]c4c(-n5ccnn5)ncc(F)c34)CC2)c1-c1ccccc1 [G-13a] | < 500
COc1cnc(-n2cnc(C)n2)c2[nH]cc(C(=O)C(=O)N3CCN(c4cnn(C)c4-c4ccccc4)CC3)c12 [G-13b] | < 500
CN(C)c1cc(N2CCN(C(=O)C(=O)c3c[nH]c4c(-n5ccnn5)ncc(F)c34)CC2)c(-c2ccccc2)nn1 [G-14a] | < 500
COc1cnc(-n2cnc(C)n2)c2[nH]cc(C(=O)C(=O)N3CCN(c4cc(N(C)C)nnc4-c4ccccc4)CC3)c12 [G-14b] | < 500
O=C(C(=O)N1CCN(c2ccnnc2-c2ccccc2)CC1)c1c[nH]c2c(-n3ccnn3)ncc(F)c12 [G-15a] | < 500

SMILES | EC50 [nM]
COc1cnc(-n2cnc(C)n2)c2[nH]cc(C(=O)C(=O)N3CCN(c4ccnnc4-c4ccccc4)CC3)c12 [G-15b] | < 500
O=C(C(=O)N1CCN(c2cn(CCN3CCOCC3)nc2-c2ccccc2)CC1)c1c[nH]c2c(-n3ccnn3)ncc(F)c12 [G-16] | < 500
O=C(C(=O)N1CCC(C2=NCCN2c2ccccc2)CC1)c1c[nH]c2c(-n3ccnn3)ncc(F)c12 [G-17a] | > 500
COc1cnc(-n2cnc(C)n2)c2[nH]cc(C(=O)C(=O)N3CCC(C4=NCCN4c4ccccc4)CC3)c12 [G-17b] | < 500
O=C(C(=O)N1CCC(c2nccn2-c2ccccc2)CC1)c1c[nH]c2c(-n3ccnn3)ncc(F)c12 [G-18a] | < 500
COc1cnc(-n2cnc(C)n2)c2[nH]cc(C(=O)C(=O)N3CCC(c4nccn4-c4ccccc4)CC3)c12 [G-18b] | < 500
O=C(C(=O)N1CCN(c2cncnc2-c2ccccc2)CC1)c1c[nH]c2c(-n3ccnn3)ncc(F)c12 [G-19a] | < 500
COc1cnc(-n2cnc(C)n2)c2[nH]cc(C(=O)C(=O)N3CCN(c4cncnc4-c4ccccc4)CC3)c12 [G-19b] | < 500
CCOC(=O)Cn1cc(N2CCN(C(=O)C(=O)c3c[nH]c4c(-n5ccnn5)ncc(F)c34)CC2)c(-c2ccccc2)n1 [G-20] | < 500
COc1cnc(-n2cnc(C)n2)c2[nH]cc(C(=O)C(=O)N3CCN(c4cn(CC#N)nc4-c4ccccc4)CC3)c12 [G-21] | < 500
O=C(C(=O)N1CCN(c2cnnn2-c2ccccn2)CC1)c1c[nH]c2c(-n3ccnn3)ncc(F)c12 [G-22a] | < 500
COc1cnc(-n2cnc(C)n2)c2[nH]cc(C(=O)C(=O)N3CCN(c4cnnn4-c4ccccn4)CC3)c12 [G-22b] | < 500
COc1cnc(-n2cnc(C)n2)c2[nH]cc(C(=O)C(=O)N3CCN(c4nn(C)nc4-c4ccccc4)CC3)c12 [G-23] | < 500
O=C(C(=O)N1CCN(c2nn[nH]c2-c2ccccn2)CC1)c1c[nH]c2c(-n3ccnn3)ncc(F)c12 [G-24a] | < 500
COc1cnc(-n2cnc(C)n2)c2[nH]cc(C(=O)C(=O)N3CCN(c4nn[nH]c4-c4ccccn4)CC3)c12 [G-24b] | < 500
O=C(C(=O)N1CCN(c2nn[nH]c2-c2nccs2)CC1)c1c[nH]c2c(-n3ccnn3)ncc(F)c12 [G-25a] | < 500
COc1cnc(-n2cnc(C)n2)c2[nH]cc(C(=O)C(=O)N3CCN(c4nn[nH]c4-c4nccs4)CC3)c12 [G-25b] | < 500
CSc1nc(N2CCN(C(=O)C(=O)c3c[nH]c4c(-n5ccnn5)ncc(F)c34)CC2)n(-c2ccccc2)n1 [G-26a] | < 500
COc1cnc(-n2cnc(C)n2)c2[nH]cc(C(=O)C(=O)N3CCN(c4nc(SC)nn4-c4ccccc4)CC3)c12 [G-26b] | < 500
O=C(C(=O)N1CCN(c2ncnn2-c2ccccc2)CC1)c1c[nH]c2c(-n3ccnn3)ncc(F)c12 [G-27a] | < 500
COc1cnc(-n2cnc(C)n2)c2[nH]cc(C(=O)C(=O)N3CCN(c4ncnn4-c4ccccc4)CC3)c12 [G-27b] | < 500

SMILES | EC50 [nM]
CS(=O)(=O)c1nc(N2CCN(C(=O)C(=O)c3c[nH]c4c(-n5ccnn5)ncc(F)c34)CC2)n(-c2ccccc2)n1 [G-28a] | < 500
COc1cnc(-n2cnc(C)n2)c2[nH]cc(C(=O)C(=O)N3CCN(c4nc(S(C)(=O)=O)nn4-c4ccccc4)CC3)c12 [G-28b] | < 500
COc1nc(N2CCN(C(=O)C(=O)c3c[nH]c4c(-n5ccnn5)ncc(F)c34)CC2)n(-c2ccccc2)n1 [G-29a] | < 500
COc1nc(N2CCN(C(=O)C(=O)c3c[nH]c4c(-n5cnc(C)n5)ncc(OC)c34)CC2)n(-c2ccccc2)n1 [G-29b] | < 500
O=C(C(=O)N1CCN(c2cnnn2-c2ccccc2)CC1)c1c[nH]c2c(-n3ccnn3)ncc(F)c12 [G-30a] | < 500
COc1cnc(-n2cnc(C)n2)c2[nH]cc(C(=O)C(=O)N3CCN(c4cnnn4-c4ccccc4)CC3)c12 [G-30b] | < 500
COc1cnc(-n2cc(C)nn2)c2[nH]cc(C(=O)C(=O)N3CCN(c4nnnn4-c4ccccn4)CC3)c12 [G-31] | < 500
Cc1nc(N2CCN(C(=O)C(=O)c3c[nH]c4c(-n5ccnn5)ncc(F)c34)CC2)n(-c2ccccc2)n1 [G-32] | < 500
COc1cnc(-c2cncc(F)c2)c2[nH]cc(C(=O)C(=O)N3CCN(c4nnnn4-c4ccccn4)CC3)c12 [H-1] | < 500
COc1cnc(-c2cccnc2F)c2[nH]cc(C(=O)C(=O)N3CCN(c4nnnn4-c4ccccn4)CC3)c12 [H-2] | < 500
COc1cnc(-c2cccnc2)c2[nH]cc(C(=O)C(=O)N3CCN(c4nnnn4-c4ccccn4)CC3)c12 [H-3] | < 500
COc1cnc(-c2cccnc2Cl)c2[nH]cc(C(=O)C(=O)N3CCN(c4nnnn4-c4ccccn4)CC3)c12 [H-4] | < 500
COc1cnccc1-c1ncc(OC)c2c(C(=O)C(=O)N3CCN(c4nnnn4-c4ccccn4)CC3)c[nH]c12 [H-5] | < 500
COc1ccncc1-c1ncc(OC)c2c(C(=O)C(=O)N3CCN(c4nnnn4-c4ccccn4)CC3)c[nH]c12 [H-6] | < 500
COc1cnc(-c2cnccc2C)c2[nH]cc(C(=O)C(=O)N3CCN(c4nnnn4-c4ccccn4)CC3)c12 [H-7] | < 500
COc1cnc(-c2ccnc(F)c2)c2[nH]cc(C(=O)C(=O)N3CCN(c4nnnn4-c4ccccn4)CC3)c12 [H-8] | < 500
COc1cnc(-c2ccc(N)nc2)c2[nH]cc(C(=O)C(=O)N3CCN(c4nnnn4-c4ccccn4)CC3)c12 [H-9] | < 500
COc1ccc(-c2ncc(OC)c3c(C(=O)C(=O)N4CCN(c5nnnn5-c5ccccn5)CC4)c[nH]c23)cn1 [H-10] | < 500
COc1cnc(-c2ccc(C#N)nc2)c2[nH]cc(C(=O)C(=O)N3CCN(c4nnnn4-c4ccccn4)CC3)c12 [H-11] | < 500
COc1cnc(-c2ccnc(C)c2)c2[nH]cc(C(=O)C(=O)N3CCN(c4nnnn4-c4ccccn4)CC3)c12 [H-12] | < 500
COc1cnc(-c2ccc(F)nc2)c2[nH]cc(C(=O)C(=O)N3CCN(c4nnnn4-c4ccccn4)CC3)c12 [H-13] | < 500
